Measured values taken from BindingDB's records for doi:10.1021/jm00171a016 (University of Oregon, 1990).

Assay: In vitro inhibitory activity against [3H]DTG binding to Sigma opioid receptor in guinea pig brain membrane homogenates

| Structure (SMILES) | IC50 |
| --- | --- |
| Cc1cc([N+](=O)[O-])ccc1NC(N)=Nc1cccc(O)c1 | 0.118 µM |
| N=C(NCc1ccccc1)NCc1ccccc1 | 0.09 µM |
| Cc1cc([N+](=O)[O-])ccc1/N=C(/N)Nc1ccc([N+](=O)[O-])cc1C | 0.76 µM |
| NC(=Nc1ccc(Br)cc1)Nc1ccc(Br)cc1 | 0.54 µM |
| Cc1ccccc1N=C(N)Nc1cccc(O)c1 | 0.207 µM |

Stronger by IC50, values ahead:

| IC50 | Structure (SMILES) |
| --- | --- |
| 0.006 µM | Cc1ccccc1NC(N)=NC1CC2CCC1C2 (stereo not given) |
| 0.006 µM | NC(=Nc1ccccc1I)NC12CC3CC(CC(C3)C1)C2 |
| 0.012 µM | Cc1ccccc1N=C(N)NC1CCCCC1 |
| 0.004 µM | NC(=NC1CC2CCC1C2)Nc1ccccc1I (stereo not given) |
| 0.037 µM | Cc1cc([N+](=O)[O-])ccc1N=C(N)Nc1ccccc1C |
